# Key:
# L1210 leukemia cells [1] = test: L1210 leukemia cell growth inhibition (48 hr, Coulter counter); assay type: cell-based, mouse; settings: Mus musculus, L1210, RPMI 1640, 10% fetal calf serum
# Procedure: Compounds 85024, 85023, 85058, 85027 and 85060 having a glycosidic linkage between the 2'carbon of the arabinose (in pyranose configuration) and base were evaluated for their growth inhibitory action on L1210 leukemia cells maintained in RPMI 1640 medium supplemented with 10% fetal calf serum and 16 mM HEPES, pH 7.2. Cellular growth inhibition was determined by incubating […] for 48 hr in 2 ml of media containing varying concentrations of drugs. Cell growth inhibition (50% growth inhibitory concentration, IC50) was determined after counting cells with a Coulter counter (Bernacki et al., Cancer Res. 45, 695, 1985). Drug concentrations which inhibited cell growth by 50% (IC50) are listed for each compound in Table 1.
# L1210/0 leukemia = test: Therapeutic activity against i.p. inoculated L1210/0 leukemic mice; assay type: in vivo, mouse (DBA/2N female); settings: for Mean ± SD survival: control 6.7 ± 0.1; for Median survival: control 7
# Procedure: The control group consisted of 20 mice injected with a 0.2 ml suspension of 0.5% Tween 80 in saline.
# L1210/ara-C leukemia = test: Therapeutic activity in DBA/2N mice with ara-C resistant L1210 leukemia; settings: for Median survival: control 7; for Mean ± SD survival: control 7.1 + 0.1
# Procedure: In conducting the evaluations, the activity was tested against intraperitoneal (i.p.) implanted leukemia in mice.
# DBA/2N female mice (20 g) were implanted i.p. with 1×10^6 L1210 leukemia cells on day 0. Mice were weighed and inspected for tumor growth and survival daily. […] Dosages varied from 1 to 800 mg/kg/day (mkd).
# Survival time was measured in days after tumor implantation. % ILS (increase in life span) was based on mean survival.
# Testing was followed as described in the NCI protocol and evaluation by comparison of median survival time (ST) of the treated animals to that of the control animals by the percentage increase in % ILS.
# Drug resistant L1210 leukemia cell sublines were obtained from the National Cancer Institute. […] Eight mice were used as controls and five mice for each drug dosage group. Drugs were administered i.p. once per day on days 1, 2, 3, 4 and 5.
# Lewis lung carcinoma = test: Therapeutic activity in C57/B16 mice with s.c. Lewis lung carcinoma; assay type: in vivo, mouse (C57/B16 female); settings: for % ILS (increase in life span): based on median survival; for Median survival: control 22
# Procedure: (§1) The therapeutic activity of 85024 was evaluated in C57/B16 female mice implanted s.c. with either Lewis lung carcinoma or M5076 sarcoma (Table 5).
# (§2) C57/B16 female mice were implanted s.c. using a trochar on day 0 with a 50 mg piece of either Lewis lung carcinoma of M5076 sarcoma. Drugs were administered i.p. once daily on days 3, 4, 5, 6 and 7. Tumor size (two perpendicular diameters) was measured with calipers and volume was estimated algebraically. Survival was monitored daily for 60 days. % ILS (increase in life span) is based on median survival.
# M5076 sarcoma = test: Therapeutic activity in C57/B16 mice with s.c. M5076 sarcoma; assay type: in vivo, mouse (C57/B16 female); settings: days 3-7; for % ILS (increase in life span): based on median survival; for Half Maximal Tumor Volume: control 32; for Median survival: control 37
# Procedure: as §1, §2
# L1210 leukemia cells [2] = test: Reversal of L1210 growth inhibition by salvageable nucleosides; assay type: cell-based, mouse
# Procedure: Reversal studies were conducted as follows: […], 85027 or 5-FdUr were added at various concentrations near their IC50 to cultures of L1210 leukemia cells, maintained in PRMI 1640 medium supplemented with 10% fetal calf serum and 16mM HEPES, pH 7.2 as described in Example 9. Nucleosides including thymidine (1×10^-5 M), uridine (1×10^-4 M), deoxyuridine ([…]), adenosine (1×10^-4 M), or guanosine (1×10^-5 M) were also added to identical drug (85024, 85027 or 5-FdUr) containing L1210 leukemia cultures. Cellular growth inhibition or its prevention by the addition of salvageable nucleosides was determined 48 hours later by counting cells using an electronic Coulter Counter.
structure (smiles),measurement,setting,value
"COC1OC[C@@H](OC(C)=O)[C@@H](OC(C)=O)[C@]1(F)n1ccc(=O)[nH]c1=O (stereo partly drawn) [compound 85024, Methyl 3,4-di-0-acetyl-2-deoxy-2(R)-[1H,3H-2,4-dioxo-1-pyrimidinyl]-2-fluoro-α-D-arabinopyranoside [5a] and methyl 3,4-di-0-acetyl-2-deoxy-2(R)-[1H,3H-2,4-dioxo-1-pyrimidinyl]-2-fluoro-β-D-arabinopyranoside [6a]]",IC50,L1210 leukemia cells [1],55 µM
same,Mean Animal Weight (on the day of death),L1210/0 leukemia; 50 mkd × 5 i.p.,23.4 g
same,Survival Range,L1210/0 leukemia; 50 mkd × 5 i.p.,7 to 8 days
same,% ILS (increase in life span),"L1210/0 leukemia; 50 mkd × 5 i.p., N.S.",7%
same,Mean ± SD survival,L1210/0 leukemia; 50 mkd × 5 i.p.,7.2 ± 0.2 days
same,Median survival,L1210/0 leukemia; 50 mkd × 5 i.p.,7 days
same,Mean Animal Weight (on the day of death),L1210/0 leukemia; 100 mkd × 5 i.p.,24.0 g
same,Survival Range,L1210/0 leukemia; 100 mkd × 5 i.p.,8-8 days
same,% ILS (increase in life span),"L1210/0 leukemia; 100 mkd × 5 i.p., N.S.",19%
same,Mean ± SD survival,L1210/0 leukemia; 100 mkd × 5 i.p.,8.0 ± 0 days
same,Median survival,L1210/0 leukemia; 100 mkd × 5 i.p.,8 days
same,Mean Animal Weight (on the day of death),L1210/0 leukemia; 200 mkd × 5 i.p.,22.0 g
same,Survival Range,L1210/0 leukemia; 200 mkd × 5 i.p.,8 to 10 days
same,Mean ± SD survival,L1210/0 leukemia; 200 mkd × 5 i.p.,8.8 ± 0.2 days
same,Median survival,L1210/0 leukemia; 200 mkd × 5 i.p.,9 days
same,% ILS (increase in life span),"L1210/0 leukemia; 200 mkd × 5 i.p., p < 0.01",31%
same,Mean Animal Weight (on the day of death),L1210/0 leukemia; 400 mkd × 5 i.p.,18.8 g
same,Survival Range,L1210/0 leukemia; 400 mkd × 5 i.p.,9 to 11 days
same,Mean ± SD survival,L1210/0 leukemia; 400 mkd × 5 i.p.,9.9 ± 0.2 days
same,Median survival,L1210/0 leukemia; 400 mkd × 5 i.p.,10 days
same,% ILS (increase in life span),"L1210/0 leukemia; 400 mkd × 5 i.p., p < 0.01",48%
same,Mean Animal Weight (on the day of death),L1210/0 leukemia; 500 mkd × 5 i.p.,17.3 g
same,Survival Range,L1210/0 leukemia; 500 mkd × 5 i.p.,10 to 11 days
same,Mean ± SD survival,L1210/0 leukemia; 500 mkd × 5 i.p.,10.4 ± 0.2 days
same,Median survival,L1210/0 leukemia; 500 mkd × 5 i.p.,10 days
same,% ILS (increase in life span),"L1210/0 leukemia; 500 mkd × 5 i.p., p < 0.01",55%
same,Mean Animal Weight (on the day of death),L1210/0 leukemia; 600 mkd × 5 i.p.,16.8 g
same,Survival Range,L1210/0 leukemia; 600 mkd × 5 i.p.,7 to 11 days
same,Mean ± SD survival,L1210/0 leukemia; 600 mkd × 5 i.p.,9.4 ± 0.8 days
same,Median survival,L1210/0 leukemia; 600 mkd × 5 i.p.,10 days
same,% ILS (increase in life span),"L1210/0 leukemia; 600 mkd × 5 i.p., p < 0.5",40%
same,Mean Animal Weight (on the day of death),L1210/0 leukemia; 700 mkd × 5 i.p.,16.6 g
same,Survival Range,L1210/0 leukemia; 700 mkd × 5 i.p.,4 to 7 days
same,% ILS (increase in life span),"L1210/0 leukemia; 700 mkd × 5 i.p., N.S.",-10%
same,Mean ± SD survival,L1210/0 leukemia; 700 mkd × 5 i.p.,6.0 ± 0.6 days
same,Median survival,L1210/0 leukemia; 700 mkd × 5 i.p.,7 days
same,% ILS (increase in life span),L1210/0 leukemia; 800 mkd × 5 i.p.,-70%
same,Mean Animal Weight (on the day of death),L1210/0 leukemia; 800 mkd × 5 i.p.,19.5 g
same,Survival Range,L1210/0 leukemia; 800 mkd × 5 i.p.,2-2 days
same,Mean ± SD survival,L1210/0 leukemia; 800 mkd × 5 i.p.,2.0 ± 0 days
same,Median survival,L1210/0 leukemia; 800 mkd × 5 i.p.,2 days
same,dose of maximal therapeutic efficacy,"L1210/0 leukemia; 5 day i.p. schedule, 1 dose per day days 1-5",500 mg/kg/day
same,mortality due to drug toxicity,"L1210/0 leukemia; i.p. days 1-5, 800 mkd",eventual mortality due to drug toxicity
same,host toxicity,"L1210/0 leukemia; i.p. days 1-5, above 500 mkd, evidenced by increased weight loss",increased host toxicity
same,Mean Animal Weight,L1210/ara-C leukemia; 100 mkd × 5 i.p.,20.7 g
same,Survival Range,L1210/ara-C leukemia; 100 mkd × 5 i.p.,8 to 9 days
same,% ILS (increase in life span),"L1210/ara-C leukemia; 100 mkd × 5 i.p., NS",28%
same,Median survival,L1210/ara-C leukemia; 100 mkd × 5 i.p.,9 days
same,Mean ± SD survival,L1210/ara-C leukemia; 100 mkd × 5 i.p.,8.6 ± 0.2 days
same,Mean Animal Weight,L1210/ara-C leukemia; 200 mkd × 5 i.p.,21.0 g
same,Survival Range,L1210/ara-C leukemia; 200 mkd × 5 i.p.,8 to 9 days
same,% ILS (increase in life span),"L1210/ara-C leukemia; 200 mkd × 5 i.p., P <.01",28%
same,Median survival,L1210/ara-C leukemia; 200 mkd × 5 i.p.,9 days
same,Mean ± SD survival,L1210/ara-C leukemia; 200 mkd × 5 i.p.,8.8 ± 0.2 days
same,Mean Animal Weight,L1210/ara-C leukemia; 500 mkd × 5 i.p.,18.6 g
same,Survival Range,L1210/ara-C leukemia; 500 mkd × 5 i.p.,10 to 11 days
same,% ILS (increase in life span),"L1210/ara-C leukemia; 500 mkd × 5 i.p., P <.01",57%
same,Median survival,L1210/ara-C leukemia; 500 mkd × 5 i.p.,11 days
same,Mean ± SD survival,L1210/ara-C leukemia; 500 mkd × 5 i.p.,10.8 ± 0.2 days
same,cross resistance to ara-C and 5-FU,L1210/ara-C leukemia; summary of L1210/ara-C and L1210/5-FU tests,not cross resistant
same,effect on tumor size,"Lewis lung carcinoma; 400 mg/kg/day i.p., days 3-7",statistically significant decrease in tumor size
same,increase of median day to reach half maximal tumor size,"Lewis lung carcinoma; 400 mg/kg/day i.p., days 3-7, normalized for animal weight, from day 19 to 23",4 days
same,Survival Range,"Lewis lung carcinoma; 50 mkd × 5 i.p., days 3-7",24 to 31 days
same,% ILS (increase in life span),"Lewis lung carcinoma; 50 mkd × 5 i.p., days 3-7",22%
same,Half Maximal Tumor Volume,"Lewis lung carcinoma; 50 mkd × 5 i.p., days 3-7, control 19, p < 0.05",20.5 days
same,Median survival,"Lewis lung carcinoma; 50 mkd × 5 i.p., days 3-7",27 days
same,Survival Range,"Lewis lung carcinoma; 200 mkd × 5 i.p., days 3-7",17 to 32 days
same,% ILS (increase in life span),"Lewis lung carcinoma; 200 mkd × 5 i.p., days 3-7",40%
same,Half Maximal Tumor Volume,"Lewis lung carcinoma; 200 mkd × 5 i.p., days 3-7, control 19",21 days
same,Median survival,"Lewis lung carcinoma; 200 mkd × 5 i.p., days 3-7",31 days
same,Survival Range,"Lewis lung carcinoma; 400 mkd × 5 i.p., days 3-7",21 to 31 days
same,% ILS (increase in life span),"Lewis lung carcinoma; 400 mkd × 5 i.p., days 3-7, p < 0.05",40%
same,Half Maximal Tumor Volume (median day to reach half maximal tumor size),"Lewis lung carcinoma; 400 mkd × 5 i.p., days 3-7, control 19, p < 0.05",23 days
same,Median survival,"Lewis lung carcinoma; 400 mkd × 5 i.p., days 3-7",31 days
same,effect on lifespan and tumor size,Lewis lung carcinoma; s.c. solid tumors (Lewis lung carcinoma or M5076 sarcoma),increased their lifespan and significantly decreased tumor size
same,effect on tumor size,M5076 sarcoma; 400 mg/kg/day i.p.,statistically significant decrease in tumor size
same,% ILS (increase in life span),M5076 sarcoma; 50 mkd × 5 i.p.,0%
same,Half Maximal Tumor Volume,"M5076 sarcoma; 50 mkd × 5 i.p., p < 0.05",35 days
same,Median survival,M5076 sarcoma; 50 mkd × 5 i.p.,36 days
same,Survival Range,"M5076 sarcoma; 50 mkd × 5 i.p., one animal survived for 60 days but bore a large, frank tumor",34 to 60 days
same,Survival Range,M5076 sarcoma; 200 mkd × 5 i.p.,36 to 42 days
same,% ILS (increase in life span),M5076 sarcoma; 200 mkd × 5 i.p.,0%
same,Half Maximal Tumor Volume,M5076 sarcoma; 200 mkd × 5 i.p.,35 days
same,Median survival,M5076 sarcoma; 200 mkd × 5 i.p.,37 days
same,Survival Range,M5076 sarcoma; 400 mkd × 5 i.p.,33 to 47 days
same,% ILS (increase in life span),M5076 sarcoma; 400 mkd × 5 i.p.,14%
same,Half Maximal Tumor Volume,"M5076 sarcoma; 400 mkd × 5 i.p., p < 0.05",38 days
same,Median survival,M5076 sarcoma; 400 mkd × 5 i.p.,42 days
same,reversal of cellular cytotoxicity by exogenous nucleosides,"L1210 leukemia cells [2]; exogenous thymidine, uridine or deoxyuridine, tissue culture","not reversed by exogenous thymidine, uridine or deoxyuridine"
same,effect of added nucleoside on the IC50,"L1210 leukemia cells [2]; thymidine (1×10^-5 M), uridine (1×10^-4 M) or deoxyuridine (1×10^-5 M)",< 10%
